The record followed here is US20220315631A1, “STAPLED BETA-CATENIN LIGANDS” (Ohio State Innovation Foundation, priority 2019, published 2022).

One series concerns the target T1, β-catenin (Homo sapiens, UniProt P35222).
T1 construct: cells harboring plasmid pGEX-β-catenin(133-665)52 were grown in LB medium; made in house; host or cells: E. coli BL21 (DE3)
T1 sequence (P35222 133-665): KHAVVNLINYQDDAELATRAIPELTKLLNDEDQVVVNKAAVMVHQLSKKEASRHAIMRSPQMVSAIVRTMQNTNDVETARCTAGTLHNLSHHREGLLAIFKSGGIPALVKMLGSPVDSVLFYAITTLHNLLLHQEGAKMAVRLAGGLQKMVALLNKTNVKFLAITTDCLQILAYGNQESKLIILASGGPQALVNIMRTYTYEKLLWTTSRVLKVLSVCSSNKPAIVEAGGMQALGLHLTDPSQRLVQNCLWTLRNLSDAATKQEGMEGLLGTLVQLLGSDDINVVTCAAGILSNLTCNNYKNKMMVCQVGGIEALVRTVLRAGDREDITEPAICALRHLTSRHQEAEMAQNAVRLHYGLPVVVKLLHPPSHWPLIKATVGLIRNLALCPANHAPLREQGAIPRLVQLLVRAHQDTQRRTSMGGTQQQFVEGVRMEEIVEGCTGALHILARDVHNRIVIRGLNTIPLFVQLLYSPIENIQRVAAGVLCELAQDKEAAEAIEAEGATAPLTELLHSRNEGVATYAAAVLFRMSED
Kind of series: FP-based competition assay for binding to β-catenin. Here is the method: Samples were transferred into black-on-black 384-well non-binding microplates (Greiner) and FP was measured using a Tecan M1000 Infinite plate reader. The data were analyzed using GraphPad Prism v. 8.0 and normalized to FP values corresponding to fully bound/unbound probe. All binding values reported are the mean±SD of independent experiments.
Protein Purification. […] Cells were harvested by centrifugation and lysed in lysis buffer (20 mM Tris, pH 8.0, 150 mM NaCl, 2 mM DTT, 1% Triton-X100, 200 mM EDTA, 10 mg/mL PMSF, and 0.2 mg/mL lysozyme) on ice for 20 min, followed by sonication (8 s off, 2 s on, 1 min total, performed twice at 70% amplitude). The homogenate was centrifuged (13,000 g for 30 min at 4° C. and the clear supernatant was loaded onto an equilibrated glutathione-agarose column. After exhaustive washing with wash buffer (20 mM Tris, pH 7.4, 150 mM NaCl, 2 mM DTT), the bound GST-β-catenin was eluted with wash buffer supplemented with 10 mM glutathione, concentrated, and stored at −80° C. in 30% glycerol.

In a further series the test system is SW480 cells. It is filed as cell-based. Here is the method: (§1) MTT Assay. SW480 (Wnt-addicted) and MCF7 (Wnt-independent) cells were seeded in 96-well plate with 3×10^3 cells per well, and allowed to grow overnight. […] After that, 10 μL of an MTT stock solution (5 mg/mL) was added into each well and the plate was incubated at 37° C. for 4 h. 100 μL of SDS-HCl solubilizing solution was added and the plate was incubated at 37° C. overnight. The absorbance of the formazan product formed was measured at 570 nm on a Tecan microtiter plate reader. Cells were incubated with serially diluted compounds for 72 hours in the presence of 10% FBS. Data reported represent the mean±SD of 3 independent experiments.
(§2) Cell Viability Assay. Cell viability was determined using the MTT assay. […] Trypsin was neutralized with the addition of warm DPBS and cells were pelleted down at 200 g for 5 min at 4° C. […] Com-pounds were serially diluted in DPBS with standardized DMSO concentration (0.5% v/v) and added to each well. […] After that, 10 μL of MTT solution was added to each well, followed by incubation for 4 h at 37° C., 5% CO2. […] The next day, A565 was determined using a Tecan M1000 Infinite plate reader and absorbance values were standardized against cell-free wells and normalized to untreated control cells. Data was analyzed using GraphPad Prism v. […]

The nature of the next series: Human serum stability. It is filed as in vitro ADME. Here is the method: Human Serum Stability. […] After protein precipitation was complete, each aliquot was centrifuged (15000 g, 5 min, 4° C.) and analyzed by RP-HPLC. The percentage of remaining peptide at a given time point was determined by integrating the peak area and compared it to that of the untreated control (100%).

A further series relates to MCF7 cells. In words: MTT cell viability assay, MCF7 (Wnt-independent) cells. The conditions noted are these: up to 20 μM. It is filed as cell-based. Here is the method: as §1, §2
(Tetrazolium assays rely on reduction of a dye to a coloured formazan, in cell work by metabolically active cells.)

A further series addresses T2, GST-β-catenin, P35222.
T2 chain: T1 sequence (P35222 133-665)
In words: fluorescence polarization; 10 nM FAM-peptide 1 against serial dilutions of GST-β-catenin. A general note: In fluorescence polarisation assays a small probe gives low polarisation when free and higher when bound to something large.

Broadly, the IC50 is the concentration that gives 50% inhibition. The term Kd denotes the free concentration of one partner at which half of the binding sites on the other are occupied at equilibrium, for simple one-to-one binding. Read a low Kd as a tighter complex.

Positions of bridges follow the written chain, without caps; N, C: chain ends. Non-standard residues stand in square brackets, D forms with d. Residues, ends and D or L forms follow the SMILES beside them. Chains are numbered I, II in the order given. 2Nal = N[C@@H](Cc1ccc2ccccc2c1)C(=O)O; Dap = NC[C@H](N)C(=O)O; AEEA = NCCOCCOCC(=O)O

As to `CC[C@H](C)[C@@H]1NC(=O)[C@@H](NC(=O)[C@H](CCC(=O)O)NC(=O)[C@@H]2CCCN2C(=O)[C@H](Cc2ccc(O)cc2)NC(=O)CNC(=O)CNC(C)=O)CC(=O)NCCCC[C@@H](C(=O)N[C@@H](CC(=O)O)C(=O)N[C@@H](CC(C)C)C(=O)N[C@@H](CCC(N)=O)C(=O)N[C@@H](CCCNC(=N)N)C(=O)N[C@H](C(=O)N[C@@H](C)C(=O)N[C@@H](CC(C)C)C(=O)NCCOCCOCC(=O)NCCOCCOCC(=O)N[C@@H](CNC(=O)CC[C@@H]2NC(=O)[C@@H](CCCNC(=N)N)NC(=O)[C@H](CCCNC(=N)N)NC(=O)[C@@H](CCCNC(=N)N)NC(=O)[C@H](CCCNC(=N)N)NC(=O)[C@H](Cc3ccc4ccccc4c3)NC(=O)[C@@H](Cc3ccccc3)NC2=O)C(N)=O)C(C)C)NC(=O)[C@H](Cc2c[nH]cn2)NC(=O)[C@H](CC(C)C)NC1=O` [peptide 3] (I: Ac-GGYPEDILHKDLQRVAL[AEEA][AEEA][Dap]-NH2 / II: cyclo([2Nal]R[dR]R[dR]E[dF]); lactam I:6-I:10 (inferred); amide I:20-II:6 (inferred); ring closure inferred), the “lower affinity for β-catenin than peptide 2” value on β-catenin (relative to peptide 2) is recorded as roughly 10 fold. The “viability of SW480 cells” value with SW480 cells (at the highest concentration tested (20 μM)) is recorded as “only slight decreases”.

With `CC[C@H](C)[C@@H]1NC(=O)[C@@H](NC(=O)[C@H](CCC(=O)O)NC(=O)[C@@H]2CCCN2C(=O)[C@H](Cc2ccc(O)cc2)NC(=O)CNC(=O)CNC(C)=O)CC(=O)NCCCC[C@@H](C(=O)N[C@@H](Cc2c[nH]cn2)C(=O)N[C@@H](CC(C)C)C(=O)N[C@@H](CCC(N)=O)C(=O)N[C@@H](CCCNC(=N)N)C(=O)N[C@H](C(=O)N[C@H](C(=O)N[C@@H](CC(C)C)C(=O)NCCC(N)=O)[C@@H](C)CC)C(C)(C)C)NC(=O)[C@H](CC(=O)O)NC(=O)[C@H](CC(C)C)NC1=O` [Peptide 9, Ac-GGYPEDILDKHLQRZIL(β-Ala)-NH2], the IC50 at β-catenin (IC50, competition with FAM-labeled peptide 1 (10 nM), 50 nM GST-β-catenin, read-out: KD or IC50) is 305 ± 19 nM. The half-life at 100 μM in “Human serum stability” (human, human serum diluted 1:4 in DPBS, human serum, read-out: serum t1/2 (converted)) was roughly 12 h. Regarding `CC[C@H](C)[C@@H]1NC(=O)[C@@H](NC(=O)[C@H](CCC(=O)O)NC(=O)[C@@H]2CCCN2C(=O)[C@H](Cc2ccc(O)cc2)NC(=O)CNC(=O)CNC(C)=O)CC(=O)NCCCC[C@@H](C(=O)N[C@@H](Cc2c[nH]cn2)C(=O)N[C@@H](CC(C)C)C(=O)N[C@@H](CCC(N)=O)C(=O)N[C@@H](CCCNC(=N)N)C(=O)N[C@H](C(=O)N[C@H](C(=O)N[C@@H](CC(C)C)C(=O)NCCOCCOCC(=O)NCCOCCOCC(=O)N[C@@H](CNC(=O)CC[C@@H]2NC(=O)[C@@H](CCCNC(=N)N)NC(=O)[C@H](CCCNC(=N)N)NC(=O)[C@@H](CCCNC(=N)N)NC(=O)[C@H](CCCNC(=N)N)NC(=O)[C@H](Cc3ccc4ccccc4c3)NC(=O)[C@@H](Cc3ccccc3)NC2=O)C(N)=O)[C@@H](C)CC)C(C)C)NC(=O)[C@H](CC(=O)O)NC(=O)[C@H](CC(C)C)NC1=O` [peptide 2] (I: Ac-GGYPEDILDKHLQRVIL[AEEA][AEEA][Dap]-NH2 / II: cyclo([2Nal]R[dR]R[dR]E[dF]); lactam I:6-I:10; amide I:20-II:6), the EC50 in the series with SW480 cells (MTT assay, read-out: EC50, viability / anti-proliferative activity against SW480 cells) turned out to be 3700 nM. As to `CC[C@H](C)[C@@H]1NC(=O)[C@@H](NC(=O)[C@H](CCC(=O)O)NC(=O)[C@@H]2CCCN2C(=O)[C@H](Cc2ccc(O)cc2)NC(=O)CNC(=O)CNC(C)=O)CC(=O)NCCCC[C@@H](C(=O)N[C@@H](Cc2c[nH]cn2)C(=O)N[C@@H](CC(C)C)C(=O)N[C@@H](CCC(N)=O)C(=O)N[C@@H](CCCNC(=N)N)C(=O)N[C@H](C(=O)N[C@H](C(=O)N[C@@H](CC(C)C)C(=O)NCCOCCOCC(=O)NCCOCCOCC(=O)N[C@@H](CNC(=O)[C@H](CCC(N)=O)NC(=O)[C@@H]2CCCN2C(=O)[C@@H]2CCCN2C(=O)[C@H](CCCNC(=N)N)NC(=O)[C@H](CCCNC(=N)N)NC(=O)[C@H](CCCNC(=N)N)NC(=O)[C@H](CCC(N)=O)NC(=O)[C@H](CCCNC(=N)N)NC(=O)[C@H](CCCNC(=N)N)NC(=O)[C@H](CCCCN)NC(=O)[C@H](CCCCN)NC(=O)[C@H](CCCNC(=N)N)NC(=O)CN)C(N)=O)[C@@H](C)CC)C(C)C)NC(=O)[C@H](CC(=O)O)NC(=O)[C@H](CC(C)C)NC1=O` [peptide 4], in the series with MCF7 cells, the “effect on MCF7 cell viability” value is “reduced the viability of MCF7 cells”. Take `CC[C@H](C)[C@@H]1NC(=O)[C@@H](NC(=O)[C@H](CCC(=O)O)NC(=O)[C@@H]2CCCN2C(=O)[C@H](Cc2ccc(O)cc2)NC(=O)CNC(=O)CNC(C)=O)CC(=O)NCCCC[C@@H](C(=O)N[C@@H](Cc2c[nH]cn2)C(=O)N[C@@H](CC(C)C)C(=O)N[C@@H](CCC(N)=O)C(=O)N[C@@H](CCCNC(=N)N)C(=O)N[C@H](C(=O)N[C@H](C(=O)N[C@@H](CC(C)C)C(=O)NCCOCCOCC(=O)NCCOCCOCC(=O)N[C@@H](CNC(=O)[C@H](CCCNC(=N)N)NC(=O)[C@H](CCCNC(=N)N)NC(=O)[C@H](CCCNC(=N)N)NC(=O)[C@H](CCCNC(=N)N)NC(=O)[C@H](CCCNC(=N)N)NC(=O)[C@H](CCCNC(=N)N)NC(=O)[C@H](CCCNC(=N)N)NC(=O)[C@H](CCCNC(=N)N)NC(=O)[C@@H](N)CCCNC(=N)N)C(N)=O)[C@@H](C)CC)C(C)C)NC(=O)[C@H](CC(=O)O)NC(=O)[C@H](CC(C)C)NC1=O` [peptide 5]: in the series on MCF7 cells, the “effect on MCF7 cell viability” value is “reduced the viability of MCF7 cells”.

With `CC[C@H](C)[C@@H]1NC(=O)[C@@H](NC(=O)[C@H](CCC(=O)O)NC(=O)[C@@H]2CCCN2C(=O)[C@H](Cc2ccc(O)cc2)NC(C)=O)CC(=O)NCCCC[C@@H](C(=O)N[C@@H](Cc2c[nH]cn2)C(=O)N[C@@H](CC(C)C)C(=O)N[C@@H](CCC(N)=O)C(=O)N[C@@H](CCCNC(=N)N)C(=O)N[C@H](C(=O)N[C@H](C(=O)N[C@@H](CC(C)C)C(N)=O)[C@@H](C)CC)C(C)(C)O)NC(=O)[C@H](CC(=O)O)NC(=O)[C@H](CC(C)C)NC1=O` [Peptide 37], the “binding affinity for β-catenin compared to peptide 9” value on β-catenin (relative to peptide 9) was “identical”. Moreover, the “serum stability compared to peptide 9” value in the series “Human serum stability” (relative to peptide 9) is on record as “identical”.

B1: peptide 1 (peptide)
peptide: GGYPECILDCHLQRVIL
modifications: not checked
In the series with GST-β-catenin, P35222, B1 returned a Kd of 18 nM.
